# Values of other authors, collected in patent US20040229960A1, “Compositions and methods of administering tubulin binding agents for the treatment of ocular diseases” (priority 2001, published 2004).
# Conditions: cited from earlier work
structure (smiles),measurement,value
"COc1ccc(/C=C\c2cc(OC)c(OC)c(OC)c2)cc1O [CA4, combretastatin A4]",Solubility in water,essentially insoluble in water
